Source: ChEMBL document CHEMBL3351221, “Synthetic derivatives of aromatic abietane diterpenoids and their biological activities” (Eur J Med Chem, 2014)
≈ marks a conversion by molar mass, not a printed value.

Assays:
[1] = system: Botryosphaeria berengeriana; assay: Antimicrobial activity against Physalospora pyricola assessed as inhibition of microbial growth at 50 ug/ml; assay type: functional
SMMC-7721 [2] = assay: Cytotoxicity against human SMMC7721 cells assessed as growth inhibition at 0.1 uM; assay type: functional
[3] = Cytotoxicity against human PC3 cells; assay type: functional, cell-based; settings: PC-3
[4] = Cytotoxicity against human Hey-1B cells; assay type: functional, cell-based
MRC5 = assay: Cytotoxicity against human MRC5 cells; assay type: cell-based
Mus musculus [5] = assay: Gastroprotective activity in mouse assessed as reduction in HCl/EtOH-induced gastric lesions at 100 mg/kg; assay type: functional; settings: Stomach
AGS = assay: Cytotoxicity against human AGS cells; assay type: cell-based
Escherichia coli = assay: Antimicrobial activity against Escherichia coli; assay type: functional
Pseudomonas fluorescens = assay: Antimicrobial activity against Pseudomonas fluorescens; assay type: functional
[6] = Cytotoxicity against human SKMES1 cells; assay type: functional, cell-based; settings: SK-MES-1
[7] = Cytotoxicity against human HL60 cells; assay type: functional, cell-based; settings: HL-60
Rattus norvegicus [8] = assay: Antiulcer activity in rat assessed as inhibition of pepsin activity at 100 mg/kg; assay type: functional
Leishmania infantum = assay: Antimicrobial activity against Leishmania infantum; assay type: functional, organism-based
Leishmania braziliensis = assay: Antimicrobial activity against Leishmania braziliensis; assay type: functional, organism-based
Rattus norvegicus [9] = assay: Antiulcer activity in rat assessed as inhibition of secretion at 30 mg/kg, ip; assay type: functional; settings: route intraperitoneal
MCF7 = assay: Cytotoxicity against human MCF7 cells; assay type: functional, cell-based
SMMC-7721 [10] = assay: Cytotoxicity against human SMMC7721 cells; assay type: functional, cell-based
C6 = assay: Cytotoxicity against rat C6 cells; assay type: functional, cell-based
A549 = assay: Cytotoxicity against human A549 cells; assay type: functional, cell-based
SMMC-7721 [11] = assay: Cytotoxicity against human SMMC7721 cells assessed as growth inhibition at 0.1 uM after 72 hrs; assay type: functional; settings: SMMC-7721, 72 h
Staphylococcus aureus = assay: Antimicrobial activity against Staphylococcus aureus; assay type: functional
Bacillus subtilis = assay: Antimicrobial activity against Bacillus subtilis; assay type: functional
Mus musculus [12] = assay: Gastroprotective activity in mouse assessed as reduction in HCl/EtOH-induced gastric lesions at 10 mg/kg; assay type: functional; settings: Stomach

Question: For COc1ccc(/C=c2\sc3nnc([C@]4(C)CCC[C@]5(C)c6ccc(C(C)C)cc6CC[C@@H]45)n3c2=O)cc1, which inhibition at 50 µg/mL [1] is on record?
Answer: 56.8%

Question: Which inhibition at 0.1 µM (SMMC-7721 [2]) does the source give for CC(C)c1ccc2c(c1)CC[C@H]1[C@](C)(CNC(c3ccc(C(F)(F)F)cc3)P(=O)(Oc3ccccc3)Oc3ccccc3)CCC[C@]21C (stereo partly drawn) here?
Answer: 79%

Question: Which IC50 [3] does the source give for CC(C)c1cc2c(cc1[N+](=O)[O-])[C@@]1(C)CCC[C@@](C)(CNC(=O)c3ccccc3)[C@@H]1CC2 here?
Answer: 5.7 µg/mL (≈ 13.1 µM)

Question: What about the IC50 [4] of the same compound?
Answer: 11.3 µg/mL (≈ 26 µM)

Question: Which IC50 (MRC5) does the source give for CC(C)c1ccc2c(c1)CC[C@H]1[C@](C)(C(=O)Nc3ccccc3Cl)CCC[C@]21C here?
Answer: > 1000 µM

Question: And the inhibition in vivo at 100 mg/kg (Mus musculus [5])?
Answer: 67%

Question: And the IC50 (AGS)?
Answer: > 1000 µM

Question: Which MIC (Escherichia coli) does the source give for CC(C)c1ccc2c(c1)CC[C@H]1[C@](C)(C(=O)N/N=C/c3ccc(Cl)c([N+](=O)[O-])c3)CCC[C@]21C here?
Answer: 3.9 µg/mL (≈ 8.09 µM)

Question: What about the MIC (Pseudomonas fluorescens) of the same compound?
Answer: 3.9 µg/mL (≈ 8.09 µM)

Question: Which IC50 [6] does the source give for COc1cc([C@@H]2c3cc4c(cc3[C@@H](O[C@@H]3O[C@@H]5CO[C@@H](C)O[C@H]5[C@H](O)[C@H]3O)[C@H]3COC(=O)[C@H]23)OCO4)cc(OC)c1O [ETOPOSIDE] here?
Answer: 1.83 µM

Question: With CCC(C)[C@H](NC(=O)[C@]1(C)CCC[C@]2(C)c3ccc(C(C)C)cc3CC[C@@H]12)C(=O)OC (stereo partly drawn) as the compound, how does the IC50 [7] read?
Answer: 2.3 µM

Question: For COC(=O)[C@H](CO)NC(=O)[C@]1(C)CCC[C@]2(C)c3ccc(C(C)C)cc3CC[C@@H]12, which IC50 [7] is on record?
Answer: 2.3 µM

Question: What does the source list for CC(C)c1cc2c(cc1[N+](=O)[O-])[C@@]1(C)CCC[C@@](C)(CNC(=O)c3ccc([N+](=O)[O-])cc3)[C@@H]1CC2?
Answer: IC50 [3]: 5.7 µg/mL (≈ 11.9 µM); IC50 [4]: 11.3 µg/mL (≈ 23.6 µM)

Question: With CC(C)c1cc2c(cc1S(=O)(=O)[O-])[C@@]1(C)CCC[C@@](C)(C(=O)[O-])[C@@H]1CC2.[Na+].[Na+] as the compound, how does the “inhibition (INH)” value (Rattus norvegicus [8]) read?
Answer: 92%

Question: Which IC50 (Leishmania infantum) does the source give for CC(C)c1cc2c(cc1O)[C@@]1(C)CCC[C@](C)(CO)[C@@H]1CC2 here?
Answer: 14 µM

Question: And the IC50 (Leishmania braziliensis)?
Answer: 14 µM

Question: For CC(C)c1ccc2c(c1)CC[C@H]1[C@](C)(C(=O)O)CCC[C@]21C [DEHYDROABIETIC ACID], which inhibition in vivo at 100 mg/kg (Mus musculus [5]) is on record?
Answer: 59%

Question: What about the inhibition in vivo at 30 mg/kg (Rattus norvegicus [9]) of the same compound?
Answer: 22%

Question: With CC(C)c1ccc2c(c1)CC[C@H]1[C@](C)(COC(=O)CCc3cn(-c4ccccc4)nn3)CCC[C@]21C as the compound, how does the IC50 [6] read?
Answer: 6.1 µM

Question: Which IC50 (MCF7) does the source give for CC(C)c1ccc2c(c1)CC[C@H]1[C@](C)(C/N=C/c3cccc(F)c3)CCC[C@]21C here?
Answer: 10.7 µM

Question: What about the IC50 (SMMC-7721 [10]) of the same compound?
Answer: 6.65 µM

Question: What about the IC50 (C6) of the same compound?
Answer: 0.81 µM

Question: And the IC50 (A549)?
Answer: 0.75 µM

Question: Which IC50 (MRC5) does the source give for Cc1ccc(NC(=O)[C@]2(C)CCC[C@]3(C)c4ccc(C(C)C)cc4CC[C@@H]23)cc1 here?
Answer: > 1000 µM

Question: And the inhibition in vivo at 100 mg/kg (Mus musculus [5])?
Answer: 67%

Question: And the IC50 (AGS)?
Answer: > 1000 µM

Question: Which inhibition at 0.1 µM (SMMC-7721 [11]) does the source give for CCOP(=O)(OCC)C(NC[C@]1(C)CCC[C@]2(C)c3ccc(C(C)C)cc3CC[C@@H]12)c1ccc([N+](=O)[O-])cc1O (stereo partly drawn) here?
Answer: 99%

Question: For COc1ccc(NC(=O)[C@]2(C)CCC[C@]3(C)c4ccc(C(C)C)cc4CC[C@@H]23)c(OC)c1, which IC50 (MRC5) is on record?
Answer: > 1000 µM

Question: And the inhibition in vivo at 100 mg/kg (Mus musculus [5])?
Answer: 67%

Question: And the IC50 (AGS)?
Answer: > 1000 µM

Question: Which IC50 [7] does the source give for COC(=O)[C@H](Cc1ccccc1)NC(=O)[C@]1(C)CCC[C@]2(C)c3ccc(C(C)C)cc3CC[C@@H]12 here?
Answer: 2.3 µM

Question: Which MIC (Escherichia coli) does the source give for CC(C)c1ccc2c(c1)CC[C@H]1[C@](C)(C[N+](CCO)(CCO)CCO)CCC[C@]21C.[Cl-] here?
Answer: 250 µg/mL

Question: What about the MIC (Staphylococcus aureus) of the same compound?
Answer: 7.81 µg/mL

Question: Which IC50 (MRC5) does the source give for Cc1cc(C)cc(NC(=O)[C@]2(C)CCC[C@]3(C)c4ccc(C(C)C)cc4CC[C@@H]23)c1 here?
Answer: > 1000 µM

Question: And the inhibition in vivo at 100 mg/kg (Mus musculus [5])?
Answer: 67%

Question: And the IC50 (AGS)?
Answer: > 1000 µM

Question: Which results are given for NCC[C@H](O)C(=O)N[C@@H]1C[C@H](N)[C@@H](O[C@H]2O[C@H](CN)[C@@H](O)[C@H](O)[C@H]2O)[C@H](O)[C@H]1O[C@H]1O[C@H](CO)[C@@H](O)[C@H](N)[C@H]1O [AMIKACIN]?
Answer: MIC (Bacillus subtilis): 0.9 µg/mL (≈ 1.54 µM); MIC (Staphylococcus aureus): 0.9 µg/mL (≈ 1.54 µM)

Question: For CC(C)c1ccc2c(c1)CC[C@H]1[C@](C)(C/N=C/c3ccc(C(F)(F)F)cc3)CCC[C@]21C, which IC50 (MCF7) is on record?
Answer: 10.7 µM

Question: And the IC50 (SMMC-7721 [10])?
Answer: 6.65 µM

Question: And the IC50 (C6)?
Answer: 0.81 µM

Question: What about the IC50 (A549) of the same compound?
Answer: 0.75 µM

Question: For CC(C)c1ccc2c(c1)CC[C@H]1[C@](C)(CNCCO)CCC[C@]21C.Cl, which MIC (Escherichia coli) is on record?
Answer: 250 µg/mL

Question: What about the MIC (Staphylococcus aureus) of the same compound?
Answer: 7.81 µg/mL

Question: With COC(=O)[C@]12CCCC(C)(C)[C@@H]1CCc1cc(C(C)C)c(OC(=O)c3ccccc3)c(OC(=O)c3ccccc3)c12 as the compound, how does the inhibition in vivo at 10 mg/kg (Mus musculus [12]) read?
Answer: 73%

Question: For CC(C)c1ccc2c(c1)CC[C@H]1[C@](C)(C[N+](C)(CCO)CCO)CCC[C@]21C.COS(=O)(=O)[O-], which MIC (Escherichia coli) is on record?
Answer: 250 µg/mL

Question: What about the MIC (Staphylococcus aureus) of the same compound?
Answer: 7.81 µg/mL

Question: Which IC50 [7] does the source give for COC(=O)[C@@H](NC(=O)[C@]1(C)CCC[C@]2(C)c3ccc(C(C)C)cc3CC[C@@H]12)C(C)C here?
Answer: 2.3 µM

Question: With CC(C)c1ccc2c(c1)CC[C@H]1[C@](C)(CNC(c3ccc(F)cc3)P(=O)(Oc3ccccc3)Oc3ccccc3)CCC[C@]21C (stereo partly drawn) as the compound, how does the inhibition at 0.1 µM (SMMC-7721 [2]) read?
Answer: 75%

Question: With CC(C)c1ccc2c(c1)CC[C@H]1[C@](C)(C(=O)Nc3ccc(I)cc3)CCC[C@]21C as the compound, how does the IC50 (MRC5) read?
Answer: > 1000 µM

Question: What about the inhibition in vivo at 100 mg/kg (Mus musculus [5]) of the same compound?
Answer: 67%

Question: What about the IC50 (AGS) of the same compound?
Answer: > 1000 µM
